Laboratory results taken from PMC8188608 (Chemical Science, 2021).
Values after ≈ are worked out from the molar mass of the structure shown.

What was measured:
mtDXPS = mtDXPS (Mycobacterium tuberculosis, UniProt P9WNS3); experiment: biochemical; conditions: for inhib. (%) mtDXPS: at 120 μM (Table 3: concentration only given); for inhibition at 200 µM / inhibition at 120 µM: read-out: inhib. (%) mtDXPS
drDXPS [1] = target: T1, drDXPS (Deinococcus radiodurans, UniProt Q9RUB5); experiment: biochemical; conditions: for inhibition at 120 µM: read-out: inhib. (%) drDXPS, at 120 μM
E. coli TolC = experiment: microbe, parasite or virus in culture; format: cell-based; conditions: for inhibition at 50 µM / MIC: Escherichia coli; for inhibition at 50 µM: read-out: inhib. (%) growth inhibition of E. coli TolC; for MIC: read-out: MIC E. coli TolC
drDXPS [2] = target: T1, drDXPS; format: binding
M. tuberculosis H37Rv = experiment: microbe, parasite or virus in culture; format: cell-based, Mycobacterium tuberculosis; conditions: for anti-TB activity, head-to-head comparative analysis: 16 μM, 14 compounds tested; for MIC: Mycobacterium tuberculosis, H37RV, read-out: MIC M. tuberculosis
[3] = format: physicochemical; conditions: when added at higher concentrations
drDXPS [4] = target: T1, drDXPS; experiment: biochemical; conditions: for IC50: IC50 drDXPS

T1 sequence (Q9RUB5 whole entry): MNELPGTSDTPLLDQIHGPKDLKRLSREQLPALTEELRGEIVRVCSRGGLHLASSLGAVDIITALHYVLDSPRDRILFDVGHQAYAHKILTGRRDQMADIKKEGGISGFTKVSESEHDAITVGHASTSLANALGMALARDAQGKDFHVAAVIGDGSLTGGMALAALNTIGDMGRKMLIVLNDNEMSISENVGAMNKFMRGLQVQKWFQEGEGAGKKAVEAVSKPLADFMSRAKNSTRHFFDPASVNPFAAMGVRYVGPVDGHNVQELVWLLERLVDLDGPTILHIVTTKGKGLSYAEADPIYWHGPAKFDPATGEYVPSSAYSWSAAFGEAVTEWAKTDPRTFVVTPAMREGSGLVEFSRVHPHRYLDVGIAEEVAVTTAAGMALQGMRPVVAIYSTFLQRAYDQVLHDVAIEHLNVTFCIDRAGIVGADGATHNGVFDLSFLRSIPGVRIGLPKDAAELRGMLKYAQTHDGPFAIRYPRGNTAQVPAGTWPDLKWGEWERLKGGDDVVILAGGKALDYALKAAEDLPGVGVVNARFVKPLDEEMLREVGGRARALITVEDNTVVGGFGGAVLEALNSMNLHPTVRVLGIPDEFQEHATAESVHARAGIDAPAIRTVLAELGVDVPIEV
Sequence of mtDXPS (P9WNS3 whole entry): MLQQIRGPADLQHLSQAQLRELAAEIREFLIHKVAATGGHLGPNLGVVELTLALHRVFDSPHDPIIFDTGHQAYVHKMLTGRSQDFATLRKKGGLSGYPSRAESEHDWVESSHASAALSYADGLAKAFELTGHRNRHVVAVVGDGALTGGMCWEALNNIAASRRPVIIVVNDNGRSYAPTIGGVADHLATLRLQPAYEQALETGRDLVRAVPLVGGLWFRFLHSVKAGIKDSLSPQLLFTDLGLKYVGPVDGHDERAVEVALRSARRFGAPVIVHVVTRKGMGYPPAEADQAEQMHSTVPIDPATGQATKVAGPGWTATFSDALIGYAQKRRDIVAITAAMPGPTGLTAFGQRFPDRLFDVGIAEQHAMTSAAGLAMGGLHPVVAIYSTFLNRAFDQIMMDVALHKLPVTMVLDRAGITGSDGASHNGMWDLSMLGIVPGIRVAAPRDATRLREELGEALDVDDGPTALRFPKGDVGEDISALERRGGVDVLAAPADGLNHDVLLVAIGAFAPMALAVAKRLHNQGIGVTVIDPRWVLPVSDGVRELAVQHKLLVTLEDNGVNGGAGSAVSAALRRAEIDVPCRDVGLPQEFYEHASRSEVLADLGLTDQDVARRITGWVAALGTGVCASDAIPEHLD

SMILES: O=C(CCCOc1ccc(Cl)cc1Cl)N/N=C/c1cccs1 [Compound 16]
- inhib. (%) mtDXPS (mtDXPS): n.i.
- inhibition at 120 µM (drDXPS [1]): 4%
- inhibition at 50 µM (E. coli TolC): 28%

SMILES: O=C(COc1ccc(Cl)cc1Cl)N/N=C/c1c[nH]c2ccccc12 [Compound 9]
- inhibition at 200 µM (mtDXPS): 15%
- inhibition at 120 µM (drDXPS [1]): 38%
- MIC (E. coli TolC): 19 ± 7 µM (≈ 6.88 µg/mL)

SMILES: O=C(CCCOc1ccc(Cl)cc1Cl)N/N=C/c1ccc2cc[nH]c2c1 [Compound 26]
- inhibition at 120 µM (mtDXPS): 5%
- inhibition at 120 µM (drDXPS [1]): 58%
- MIC (E. coli TolC): 14 ± 4 µM (≈ 5.46 µg/mL)

SMILES: O=C(COc1ccc(Cl)cc1Cl)N/N=C/c1cc2c(s1)CCCC2 [Compound 6]
- inhibition at 120 µM (mtDXPS): 46%
- IC50 (drDXPS [1]; IC50 drDXPS): 101 µM
- inhib. (%) growth inhibition of E. coli TolC (E. coli TolC; at 25 μM): n.i.^#

SMILES: O=C(CCCOc1ccc(Cl)cc1Cl)N/N=C/c1ncc[nH]1 [Compound 12]
- inhibition at 120 µM (mtDXPS): 9%
- inhibition at 120 µM (drDXPS [1]): 33%
- inhibition at 50 µM (E. coli TolC): 30%

SMILES: O=C(Cc1c[nH]c2ccccc12)N/N=C/c1ccc(C(F)(F)F)nc1 [Compound 4]
- inhibition at 200 µM (mtDXPS): 25%
- inhib. (%) drDXPS (drDXPS [1]; at 120 μM): n.i.

SMILES: COc1cccc(/C=N/NC(=O)CCCOc2ccc(Cl)cc2Cl)c1O [Compound 25]
- inhib. (%) mtDXPS (mtDXPS): n.i.
- inhibition at 120 µM (drDXPS [1]): 45%
- MIC (E. coli TolC): 60 µM (≈ 23.8 µg/mL)

SMILES: CC(C)(C)OC(=O)N[C@@H](Cc1ccccc1)C(=O)N/N=C/c1ccc2cc[nH]c2c1 [Compound 37]
- inhibition at 120 µM (mtDXPS): 3%
- inhibition at 120 µM (drDXPS [1]): 40%
- inhibition at 50 µM (E. coli TolC): 60%

SMILES: O=C(CCCOc1ccc(Cl)cc1Cl)N/N=C/c1cccc2[nH]ncc12 [Compound 22]
- inhib. (%) mtDXPS (mtDXPS): n.i.
- inhibition at 120 µM (drDXPS [1]): 47%
- inhib. (%) growth inhibition of E. coli TolC (E. coli TolC; at 50 μM): n.i.

SMILES: O=C(CCCOc1ccc(Cl)cc1Cl)N/N=C/c1ccc(O)cc1F [Compound 23]
- inhib. (%) mtDXPS (mtDXPS): n.i.
- inhibition at 120 µM (drDXPS [1]): 40 to 62%
- MIC (E. coli TolC): 45 µM (≈ 17.3 µg/mL)

SMILES: O=C(CCCOc1ccc(Cl)cc1Cl)NCCc1ccc(O)cc1F [Compound 39]
- fold decrease in binding affinity for drDXPS (drDXPS [2]): ~2 fold
- inhibition at 120 µM (drDXPS [1]): 37%
- inhibition at 50 µM (E. coli TolC): 83%

SMILES: O=C(COc1ccc(Cl)cc1Cl)N/N=C/c1ccc(Br)cn1 [Compound 10]
- inhibition at 200 µM (mtDXPS): 32%
- inhibition at 120 µM (drDXPS [1]): 14%
- inhibition at 50 µM (E. coli TolC): 21%

SMILES: O=C(N/N=C/c1ccc2cc[nH]c2c1)c1cc2c(s1)CCCC2 [Compound 35]
- inhibition at 120 µM (mtDXPS): 30%
- anti-TB activity, head-to-head comparative analysis (M. tuberculosis H37Rv): most active
- MIC (M. tuberculosis H37Rv): 64 µM (≈ 20.7 µg/mL)
- aggregate formation [3]: did not induce aggregate formation
- inhibition at 120 µM (drDXPS [1]): 62%
- MIC (E. coli TolC): 16 ± 5 µM (≈ 5.17 µg/mL)

SMILES: O=C(N/N=C/c1cc2c(s1)CCCC2)c1cccs1 [Compound 7]
- inhibition at 120 µM (mtDXPS): 65%
- inhibition at 200 µM (mtDXPS): 65 ± 4%
- anti-TB activity, head-to-head comparative analysis (M. tuberculosis H37Rv): most active
- MIC (M. tuberculosis H37Rv): > 64 µM
- aggregate formation [3]: did not induce aggregate formation
- inhibition at 120 µM (drDXPS [1]): 37%
- inhibition at 50 µM (E. coli TolC): 57%

SMILES: CCN(CC)c1ccc(/C=N/NC(=O)c2cccs2)c(O)c1 [Compound 21]
- inhibition at 120 µM (mtDXPS): 11%
- inhibition at 120 µM (drDXPS [1]): 6%
- MIC (E. coli TolC): 70 µM (≈ 22.2 µg/mL)

SMILES: Nc1ncc(/C=N/NC(=O)c2cc3c(s2)CCCC3)cn1 [Compound 3]
- inhibition at 120 µM (drDXPS [1]): 15%
- inhib. (%) growth inhibition of E. coli TolC (E. coli TolC; at 50 μM): n.i.

SMILES: O=C(N/N=C/c1ccc(C(F)(F)F)nc1)c1cc2c(s1)CCCC2 [Compound 1, (E)-N'-((6-(Trifluoromethyl)pyridin-3-yl)methylene)-4,5,6,7-tetrahydrobenzo[b]thiophene-2-carbohydrazide]
- IC50 (mtDXPS; IC50 mtDXPS): 78 µM
- IC50 (drDXPS [1]; IC50 drDXPS): 51 µM
- inhib. (%) growth inhibition of E. coli TolC (E. coli TolC; at 50 μM): no inhib. and n.i.
- mode of inhibition (drDXPS [4]): ThDP- and pyruvate-competitive and non-competitive with respect to D/L-GAP
- IC50 (drDXPS [4]; at 0.3 μM ThDP): 35 ± 10 µM
- IC50 (drDXPS [4]; at 0.1 mM pyruvate): 19 ± 5 µM
- IC50 (drDXPS [4]; at 0.4 mM pyruvate): 86 ± 15 µM
- IC50 (drDXPS [4]; varying D/L-GAP concentrations): ~50 µM
- inhibition of drDXPS (drDXPS [4]; at 5 μM ThDP): 20%
- inhibition of drDXPS (drDXPS [4]; at 0.6 mM pyruvate): 32%

SMILES: FC(F)(F)c1ccc(-c2nnc(-c3cc4c(s3)CCCC4)o2)cn1 [Compound 40]
- KD drDXPS (drDXPS [2]; SPR, steady-state fit): n.b.
- inhib. (%) growth inhibition of E. coli TolC (E. coli TolC; at 50 μM): no inhibition and n.i.

SMILES: Oc1ccc(-c2nnc(CCCOc3ccc(Cl)cc3Cl)o2)c(F)c1 [Compound 41, 4-(5-(3-(2,4-dichlorophenoxy)propyl)-1,3,4-oxadiazol-2-yl)-3-fluorophenol]
- inhib. (%) drDXPS (drDXPS [1]; at 60 μM): 48 ± 3%
- IC50 (drDXPS [1]; estimated IC50 drDXPS, estimated assuming full inhibition at high concentrations): 99 µM
- inhibition at 50 µM (E. coli TolC): 47%

SMILES: O=C(NCCc1ccc(C(F)(F)F)nc1)c1cc2c(s1)CCCC2 [Compound 38]
- inhibition at 120 µM (drDXPS [1]): 25.8%
- inhibition at 50 µM (E. coli TolC): 19%
